Data published in US7452887B2, “Quinoline- and isoquinoline-based compounds exhibiting ATP-utilizing enzyme inhibitory activity, and compositions, and uses thereof” (Amphora Discovery Corporation, priority 2004, dated 2008).

Tests used:
Assay in all cases: HTS ATP-utilizing enzyme assay, off-chip mobility-shift (Caliper HTS 250)
Assay type in all cases: biochemical
Settings in all cases: test compound 10 μM, kinase listed = active (greater than six-sigma from the mean activity of inactive compounds)
PRAK = target: T1, PRAK (Homo sapiens, UniProt Q8IW41)
T1 sequence (Q8IW41 1-473): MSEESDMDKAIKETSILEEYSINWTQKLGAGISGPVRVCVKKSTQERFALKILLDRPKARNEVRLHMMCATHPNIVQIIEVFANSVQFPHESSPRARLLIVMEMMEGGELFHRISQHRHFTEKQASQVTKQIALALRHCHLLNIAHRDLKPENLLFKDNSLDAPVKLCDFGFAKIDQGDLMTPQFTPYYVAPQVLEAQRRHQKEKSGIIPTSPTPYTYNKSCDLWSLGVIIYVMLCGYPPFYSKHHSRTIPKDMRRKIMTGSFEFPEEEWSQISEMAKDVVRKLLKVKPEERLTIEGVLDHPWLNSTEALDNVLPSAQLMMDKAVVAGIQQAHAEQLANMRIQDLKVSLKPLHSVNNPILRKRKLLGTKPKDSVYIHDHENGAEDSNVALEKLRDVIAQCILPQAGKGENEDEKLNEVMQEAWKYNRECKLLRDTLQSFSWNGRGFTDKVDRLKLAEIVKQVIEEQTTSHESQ
Source text: (§1) The following procedures describe the reagent and plate preparation for a HTS of an ATP-utilizing enzyme, such as a protein kinase, run in an off-chip mobility-shift assay format. The following provides an HTS protocol for running a protein kinase HTS screen on a Caliper HTS 250 microfluidics system. The following parameters are dependent on the protein kinase used and can be determined by one skilled in the art as part of a typical assay development process. For example, the peptide substrate used can be identified from the current literature, by screening a peptide library of potential protein kinase substrates, or by other applicable means accepted in the field.
(§2) The following table provides typical screen assay parameters appropriate for a Caliper HTS 250 microfluidics system.
(§3) The reagents and buffers listed in the following table are generally applicable for developing and running an HTS screen on a human protein kinase using the Caliper HTS 250 system.
(§4) The following reagents were prepared using the previously described buffers.
(§5) A 2× Master Buffer solution was prepared by combining 200 mL of 1 M HEPES, pH 7.5, 2 mL of 10% Triton X-100, 20 mL of 10% BSA, and 778 mL of H2O.
(§6) A 2.5× Substrate Buffer solution was prepared by combining 177.408 mL of 2× Master Buffer, 0.887 mL of 1 mM peptide-X, and 176.521 mL of H2O.
(§7) A 1.55× Termination Buffer solution was prepared by combining 762.05 mL of 2× Master Buffer, 95.1 mL of 0.5 M EDTA, and 666.94 mL of H2O.
(§8) A TCB Buffer solution was prepared by combining 125 mL of 2× Master Buffer, 10 mL of 0.5 M EDTA, 6.25 mL of 4% coating reagent, 1.01 mL of 100% DMSO, and 107.74 mL H2O.
(§9) A Dye Trough solution was prepared by combining 0.5 μL of peptide-X, and 2,999.5 μL of IX Master Buffer.
(§10) A 1.06× Assay Buffer solution was prepared by combining 205.15 mL of 2× Master Buffer, and 181.92 mL of H2O.
(§11) Assays to determine the kinase inhibitory activity of compounds of the present disclosure were performed using a Caliper HTS 250 microfluidics device, Greiner U-bottom assay plates, a Multidrop for transfer of reagents, and Biomek FX (AMNCBM03) software. Initially, 2.4 μL of a 1 mM solution of a test compound in 100% DMSO was added to a well of the Greiner U-bottom plate. A single Greiner U-bottom plate having 24×16 wells could include multiple test compounds. Next, […] of 1.06× Assay Buffer was added to each well of the assay plate. Using the Biomek FX, 10 μL of 0.5 M EDTA was added by the span-8 to wells, indicated as 100% Control and 2.4 μL of 100% DMSO was added by the span-8 to wells, indicated as 0% Control. Using the Multidrop, 10 μL of 2.5× Enzyme Buffer, followed by 10 μL of 2.5× Substrate Buffer was added to each well of the assay plate. The total reaction volume in each well was 25 μL, and the concentration of the test compound was 10 μM. The assay plate was incubated for 2.5 hrs at 20° C. to 22° C. After the incubation period, using the Multidrop, 45 μL of 1.55× Termination Buffer was added to each well of the assay plate to stop the reaction. The inhibition of the ATP-utilizing enzyme, such as a particular protein kinase, was determined by measuring the ratio of the peptide substrate to phosphorylated product for each well of the assay plate using the Caliper HTS 250 system.
(§12) The use of six-sigma statistical limits represents a conservative method for declaring potential hits among targets. The six-sigma activity, as well as the mean population activity, can be different for each target enzyme. This method has an expected false positive rate, from an in-control measurement process, of one in one million.

NEK2 = target: T2, NEK2 (Homo sapiens, UniProt P51955)
T2 sequence (P51955 1-445): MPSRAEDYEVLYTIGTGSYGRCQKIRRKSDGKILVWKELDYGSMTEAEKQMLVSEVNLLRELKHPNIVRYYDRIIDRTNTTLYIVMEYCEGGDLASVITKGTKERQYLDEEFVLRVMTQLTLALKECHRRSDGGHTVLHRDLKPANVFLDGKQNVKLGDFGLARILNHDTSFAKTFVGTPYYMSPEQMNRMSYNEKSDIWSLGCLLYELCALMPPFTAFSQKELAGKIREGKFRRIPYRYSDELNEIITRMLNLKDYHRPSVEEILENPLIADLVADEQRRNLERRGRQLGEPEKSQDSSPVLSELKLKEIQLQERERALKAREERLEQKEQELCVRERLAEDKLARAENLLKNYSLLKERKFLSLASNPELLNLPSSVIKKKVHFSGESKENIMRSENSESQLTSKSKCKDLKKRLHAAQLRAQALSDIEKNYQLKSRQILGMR
Source text: as §1, §2, §3, §4, §5, §6, §7, §8, §9, §10, §11, §12

MAPKAPK2 = MAPKAPK2 (Homo sapiens, UniProt P49137)
Sequence of MAPKAPK2 (P49137 whole entry): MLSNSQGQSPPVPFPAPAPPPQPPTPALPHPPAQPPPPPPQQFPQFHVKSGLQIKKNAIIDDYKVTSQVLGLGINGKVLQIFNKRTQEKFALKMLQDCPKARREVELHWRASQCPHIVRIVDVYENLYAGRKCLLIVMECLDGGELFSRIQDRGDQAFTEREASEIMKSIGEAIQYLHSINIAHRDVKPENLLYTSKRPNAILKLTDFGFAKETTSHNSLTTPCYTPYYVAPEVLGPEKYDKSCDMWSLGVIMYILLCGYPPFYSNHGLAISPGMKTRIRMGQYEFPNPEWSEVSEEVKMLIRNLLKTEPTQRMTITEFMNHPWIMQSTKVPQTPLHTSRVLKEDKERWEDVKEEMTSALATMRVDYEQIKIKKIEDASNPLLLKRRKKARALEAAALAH
Outline: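 Single-point screen of test compound at 10 μM against MAPKAPK2 with peptide substrate in HEPES pH 7.5 buffer (Triton X-100, BSA), 2.5 h at 20-22 °C. Substrate-to-phosphopeptide ratio was read by off-chip microfluidic mobility shift; EDTA and DMSO wells defined 100% and 0% controls, hits by six-sigma limits.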

C-TAK1 = C-TAK1 (Homo sapiens, UniProt P27448)
Sequence of C-TAK1 (P27448 whole entry): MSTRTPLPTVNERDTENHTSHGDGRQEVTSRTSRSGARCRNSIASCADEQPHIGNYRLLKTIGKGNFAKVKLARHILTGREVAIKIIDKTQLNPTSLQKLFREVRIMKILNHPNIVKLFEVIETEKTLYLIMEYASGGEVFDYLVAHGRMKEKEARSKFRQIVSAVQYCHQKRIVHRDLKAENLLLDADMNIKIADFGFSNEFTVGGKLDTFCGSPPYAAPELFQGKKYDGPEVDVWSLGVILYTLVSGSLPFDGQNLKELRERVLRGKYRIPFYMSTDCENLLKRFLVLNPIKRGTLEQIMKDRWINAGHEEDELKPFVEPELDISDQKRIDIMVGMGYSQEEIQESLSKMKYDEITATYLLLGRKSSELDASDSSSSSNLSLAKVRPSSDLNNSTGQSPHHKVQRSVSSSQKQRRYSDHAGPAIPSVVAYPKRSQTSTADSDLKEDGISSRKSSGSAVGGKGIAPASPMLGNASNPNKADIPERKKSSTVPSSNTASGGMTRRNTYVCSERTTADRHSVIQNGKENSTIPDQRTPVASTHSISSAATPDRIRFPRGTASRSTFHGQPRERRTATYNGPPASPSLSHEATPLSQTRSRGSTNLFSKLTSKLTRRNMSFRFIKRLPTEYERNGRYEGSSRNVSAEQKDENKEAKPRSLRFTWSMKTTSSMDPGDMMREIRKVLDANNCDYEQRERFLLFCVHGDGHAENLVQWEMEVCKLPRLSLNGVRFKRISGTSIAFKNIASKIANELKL
Source text: as §1, §2, §3, §4, §5, §6, §7, §8, §9, §10, §11, §12

Activity (PRAK) | Activity (NEK2) | Activity (MAPKAPK2) | Activity (C-TAK1) | Compound
PRAK | NEK2 | MAPKAPK2 |  | CN1CCN(c2ccc(Nc3ccnc4ccc(-c5ccc(C#N)cc5)cc34)cc2)CC1 [4-(4-(4-(4-methylpiperazin-1-yl)phenylamino)quinolin-6-yl)benzonitrile]
PRAK | NEK2 | MAPKAPK2 |  | Cc1cccc(-c2ccc3nccc(Nc4ccc(N5CCN(C)CC5)cc4)c3c2)c1C [6-(2,3-dimethylphenyl)-N-(4-(4-methylpiperazin-1-yl)phenyl)quinolin-4-amine]
PRAK | NEK2 | MAPKAPK2 |  | CN1CCN(c2ccc(Nc3ccnc4ccc(-c5ccc(Cl)cc5Cl)cc34)cc2)CC1 [6-(2,4-dichlorophenyl)-N-(4-(4-methylpiperazin-1-yl)phenyl)quinolin-4-amine]
PRAK | NEK2 | MAPKAPK2 |  | CN1CCN(c2ccc(Nc3ccnc4ccc(-c5ccc(F)cc5F)cc34)cc2)CC1 [6-(2,4-difluorophenyl)-N-(4-(4-methylpiperazin-1-yl)phenyl)quinolin-4-amine]
PRAK | NEK2 | MAPKAPK2 |  | COc1ccc(-c2ccc3nccc(Nc4ccc(N5CCN(C)CC5)cc4)c3c2)c(OC)c1 [6-(2,4-dimethoxyphenyl)-N-(4-(4-methylpiperazin-1-yl)phenyl)quinolin-4-amine]
PRAK | NEK2 | MAPKAPK2 |  | CN1CCN(c2ccc(Nc3ccnc4ccc(-c5cc(F)ccc5F)cc34)cc2)CC1 [6-(2,5-difluorophenyl)-N-(4-(4-methylpiperazin-1-yl)phenyl)quinolin-4-amine]
PRAK | NEK2 | MAPKAPK2 |  | CCc1ccccc1-c1ccc2nccc(Nc3ccc(N4CCN(C)CC4)cc3)c2c1 [6-(2-ethylphenyl)-N-(4-(4-methylpiperazin-1-yl)phenyl)quinolin-4-amine]
PRAK | NEK2 | MAPKAPK2 |  | COc1ccccc1-c1ccc2nccc(Nc3ccc(N4CCN(C)CC4)cc3)c2c1 [6-(2-methoxyphenyl)-N-(4-(4-methylpiperazin-1-yl)phenyl)quinolin-4-amine]
PRAK | NEK2 | MAPKAPK2 |  | Cc1ccc(-c2ccc3nccc(Nc4ccc(N5CCN(C)CC5)cc4)c3c2)cc1C [6-(3,4-dimethylphenyl)-N-(4-(4-methylpiperazin-1-yl)phenyl)quinolin-4-amine]
PRAK | NEK2 | MAPKAPK2 |  | CN1CCN(c2ccc(Nc3ccnc4ccc(-c5cccc(Cl)c5)cc34)cc2)CC1 [6-(3-chlorophenyl)-N-(4-(4-methylpiperazin-1-yl)phenyl)quinolin-4-amine]
 |  | MAPKAPK2 | C-TAK1 | CN1CCN(c2ccc(Nc3ccnc4ccc(-c5ccc(C6CCCCC6)cc5)cc34)cc2)CC1 [6-(4-cyclohexylphenyl)-N-(4-(4-methylpiperazin-1-yl)phenyl)quinolin-4-amine]
PRAK | NEK2 | MAPKAPK2 |  | CC(C)c1ccc(-c2ccc3nccc(Nc4ccc(N5CCN(C)CC5)cc4)c3c2)cc1 [6-(4-isopropylphenyl)-N-(4-(4-methylpiperazin-1-yl)phenyl)quinolin-4-amine]
PRAK |  | MAPKAPK2 |  | CN1CCN(c2ccc(Nc3ccnc4ccc(-c5ccc(CO)cc5)cc34)cc2)CC1 [(4-(4-(4-(4-methylpiperazin-1-yl)phenylamino)quinolin-6-yl)phenyl)methanol]
PRAK |  | MAPKAPK2 |  | CCN1CCN(c2ccc(Nc3ccnc4ccc(-c5ccccc5)cc34)cc2)CC1 [N-(4-(4-ethylpiperazin-1-yl)phenyl)-6-phenylquinolin-4-amine]
PRAK |  | MAPKAPK2 |  | CN1CCN(c2ccc(Nc3ccnc4ccc(-c5cccc(OC(F)(F)F)c5)cc34)cc2)CC1 [N-(4-(4-methylpiperazin-1-yl)phenyl)-6-(3-(trifluoromethoxy)phenyl)quinolin-4-amine]
PRAK |  | MAPKAPK2 |  | CN1CCN(c2ccc(Nc3ccnc4ccc(-c5ccc([S+](C)[O-])cc5)cc34)cc2)CC1 (stereo not shown) [N-(4-(4-methylpiperazin-1-yl)phenyl)-6-(4-(methylsulfinyl)phenyl)quinolin-4-amine]
PRAK |  | MAPKAPK2 |  | CN1CCN(c2ccc(Nc3ccnc4ccc(-c5ccc(OC(F)(F)F)cc5)cc34)cc2)CC1 [N-(4-(4-methylpiperazin-1-yl)phenyl)-6-(4-(trifluoromethoxy)phenyl)quinolin-4-amine]
PRAK |  |  | C-TAK1 | CCCCCc1ccc(-c2ccc3nccc(Nc4ccc(N5CCN(C)CC5)cc4)c3c2)cc1 [N-(4-(4-methylpiperazin-1-yl)phenyl)-6-(4-pentylphenyl)quinolin-4-amine]
PRAK |  | MAPKAPK2 |  | CN1CCN(c2ccc(Nc3ccnc4ccc(-c5ccsc5)cc34)cc2)CC1 [N-(4-(4-methylpiperazin-1-yl)phenyl)-6-(thiophen-3-yl)quinolin-4-amine]
PRAK | NEK2 | MAPKAPK2 |  | Cc1cccc(-c2ccc3nccc(Nc4ccc(N5CCN(C)CC5)cc4)c3c2)c1 [N-(4-(4-methylpiperazin-1-yl)phenyl)-6-m-tolylquinolin-4-amine]
PRAK | NEK2 | MAPKAPK2 |  | Cc1ccc(-c2ccc3nccc(Nc4ccc(N5CCN(C)CC5)cc4)c3c2)cc1 [N-(4-(4-methylpiperazin-1-yl)phenyl)-6-p-tolylquinolin-4-amine]
